Measured values as given in patent US12102633B2, “Spirolactone compounds” (Quixgen, Inc., priority 2017, dated 2024).
pIC50: −log10 of the molar value.

How the values were obtained:
[1] = test system: 3T3-L1 adipocytes; assay: Lipogenesis of 3T3-L1 adipocytes; assay type: cell-based; details: Mus musculus, TG readout, read-out: LG-3T3 IC50
Experimental: 3T3-L1 fibroblast cells (Zen-Bio) were grown in 96-well culture microplate (Corning) with growth media to around 90-100% confluency. Culture media was changed to differentiation media (growth media supplemented with 3-Isobutyl-1-Methylxanthine 500 μM, Dexamethasone 1 μM, insulin 10 μg/mL, and rosiglitazone 2 μM) plus serially diluted compounds prepared in DMSO (1:1000 dilution). After incubation for 2 days, media was changed to maintenance media (growth media supplemented with insulin 10 μg/mL) plus serially diluted compounds prepared in DMSO (1:1000 dilution) for around 1 week with media changed every 2 days. Upon completion of the treatment, culture media are discarded and 200 μL 0.01% SDS was added to each well and shaken for 1 hour to lyse the cells. Cell lysates were then transferred to 400 μL Folch's solution (chloroform: methanol=2:1) and mixed well. After centrifuge at 2,000 rpm for 20 min, 200 μL of the lower organic phase was transferred to a plate with 10 μL sample buffer (chloroform:Triton-100=3:1). Samples were blown dried under nitrogen and 200 μL triglyceride (TG) quantification reagent (Thermo Fisher Scientific) was added, mixed, and incubated at 37° C. for 30 min. TG concentration was determined by reading absorbance at 535 nm (Dynex MRX^e Magellan Biosciences) and calculated from standard curve.

[2] = Standard PK in CD-1 mice (m-PK); assay type: in vivo, mouse; details: for half-life / clearance: male; for half-life: CD-1, mouse, whole blood, read-out: m-PK T1/2 (converted); for clearance: CD-1, whole blood, 1 mg/kg IV, read-out: m-PK Cl; for clearance / m-PK F: mouse; for m-PK F: 5 mg/kg PO vs 1 mg/kg IV
Experimental: Standard PK. Male catheterized CD-1 mice were treated with Compound 6 prepared in vehicle (5% DMSO+10% Solutol+85% PBS, PH=7.4) at doses of 1 mg/kg for IV (5 mL/kg) or 5 mg/kg for PO (10 mL/kg). Blood samples (20 VL) were collected at 0.083, 0.25, 0.5, 1, 2, 4, 8, and 24 hrs post dose and mixed with 60 VL 0.1 M sodium citrate. Upon extraction by using acetonitrile, blood concentrations of Compound 6 were quantitated by LC-MS/MS. PK parameters were calculated by using WinNonlin® 6.4.

[3] = Plasma protein binding (human); assay type: in vitro ADME; details: % free, read-out: PPB (h/m) % free, human
Experimental: (§1) The data in Table 5 were obtained by following the methods disclosed in this application and/or those standard techniques known in the art. ACC enzyme activities were measured according to Biological Examples 1 and 2; Malonyl-CoA in sebocytes were measured according to Biological Example 4; Effect on lipogenesis of 3T3-L1 adipocytes were measured according to Biological Example 7; Effect on lipogenesis of sebocytes were measured according to Biological Example 5; Effect on proliferation of sebocytes were measured according to Biological Example 6; Mouse PK were measured according to Biological Example 10; and Plasma protein binding (human or mouse) were measured by standard technique.

[4] = Plasma protein binding (mouse); assay type: in vitro ADME; details: % free, read-out: PPB (h/m) % free, mouse
Experimental: as §1

| half-life [2] [min] | clearance [2] [mL/min/kg] | m-PK F [2] | fraction unbound [3] | fraction unbound [4] | SMILES | pIC50 [1] |
| --- | --- | --- | --- | --- | --- | --- |
| 25.2 | 46.5 | F: 4.9% | 0.0037 | 0.0028 | COc1cc(C(=O)N2CCC3(CC2)Cc2ccc(C(C)C)cc2C(=O)O3)nc2c(OC)cccc12 [Example 2, 1′-(4,8-dimethoxyquinoline-2-carbonyl)-7-isopropylspiro[isochroman-3,4′-piperidin]-1-one] | 9.10 |
| 30 | 15.2 | F: 53% | 0.0036 | 0.0073 | COc1cc(C(=O)N2CCC3(CC2)Cc2ccc(Nc4ccnn4C)cc2C(=O)O3)nc2c(OC)cccc12 [Example 6, 1′-(4,8-dimethoxyquinoline-2-carbonyl)-7-((1-methyl-1H-pyrazol-5-yl)amino)spiro[isochroman-3,4′-piperidin]-1-one] | 7.66 |
